Measurements taken from US20070161547A1, “Modulation of survivin expression” (priority 2003, published 2007).

Each substance was assayed on survivin protein (assay: IC50 of dsRNA for survivin protein, quantitative Western blot ("W")). Settings: W (Western blot), HeLa cells.
Assay type: cell-based, human
Description: Western blot analysis (immunoblot analysis) is carried out using standard methods. Cells are harvested 16-20 hours after oligonucleotide treatment, washed once with PBS, suspended in Laemmli buffer (100 μl/well), boiled for 5 minutes and loaded on a 16% SDS-PAGE gel. Gels are run for 1.5 hours at 150 V, and transferred to membrane for western blotting. Appropriate primary antibody directed to survivin is used, with a radiolabelled or fluorescently labeled secondary antibody directed against the primary antibody species. Bands are visualized using a PHOSPHORIMAGER™ (Molecular Dynamics, Sunnyvale, Calif.).
For western blot analysis, cells are plated in 10 cm tissue culture dishes (Falcon, #3003) at a density of 7.5×10^5 cells/dish. For RT-PCR analysis, 96-well plates (Corning Incorporated, #3596) are plated with 1×10^4 cells/well. Lipofectin (GIBCO/Invitrogen) transfection reagent is used at a concentration of 3 ul/ml OPTIMEM reduced serum medium (Gibco/Invitrogen)/100 nM siRNA duplex. Lipofectin reagent is incubated with OPTIMEM medium for 30 minutes prior to the addition of siRNA. The desired amount of siRNA is added and mixed. Further 1:1 dilutions are performed in OPTIMEM. Cells are washed twice with 1× phosphate buffered saline and then treated with the siRNA/Lipofectin mixture in OPTIMEM. After a 4 hr incubation period, OPTIMEM medium is replaced with complete growth medium. Cells are harvested after additional 16-20 hrs for Western blot or RT-PCR analysis.
At the end of the incubation period culture medium is removed and cells are washed twice with PBS. Cells are lysed in RIPA buffer (20 mM Tris-HCl, pH 7.4, 5 mM EDTA, 50 mM NaCl, 10 mM Sodium Pyrophosphate, 50 mM Sodium Fluoride, and 1% Nonidet P40) plus Complete™ Mini protease inhibitor tablets (Roche, #1836153) and 1 mM Sodium orthovanadate (Sigma) by directly adding buffer to the plate. Lysates are collected by scrapping, transferred to microfuge tubes and cleared from the cellular debris by centrifugation at 14,000 rpm for 30 minutes at 4° C. Protein concentrations are determined using BCA protein assay yeagents (Pierce). Total cellular protein is subjected to SDS-PAGE and transferred onto Immobilon-P membranes (Millipore, #IPVHO91). Membranes are probed with primary antibodies to survivin (R&D Systems, #AF886) and to β-Actin (Sigma, #A5441). Horseradish peroxidase linked Anti-rabbit Ig, and anti-mouse Ig, antibodies (Pharmacia) are used as secondary antibodies. Antigen-antibody complexes are visualized by incubation of membrane in SuperSigmal West Pico chemiluminescence reagents (Pierce) for 5 minutes followed by capturing of the chemiluminescence using Fluor-S imager (Biorad) equipped with the cool CCD camera. The protein bands of interest for each sample are quantified using Quantity One software (Biorad). The percentage inhibition for each samples are calculated by comparing the survivin/Actin protein ratio for the sample to survivin/Actin protein ratio for the untreated control. The IC50 is derived from the non-linear regression analysis of the percentage inhibition data using GraphPad Prism software (GraphPad Software).
The constructs tested comprise the antisense strand in the 5′-3′ orientation, and the sense strand in the 5′ to 3′ orientation, In Table 15, “D” is dose response (mRNA levels) and “W” is Western blot. All internucleoside linkages are phosphodiester unless otherwise noted by a lowercase “s” indicating a phosphorothioate linkage.
“339058_339088 (antisense AACAAAAUAAGAAAGCCAUG; sense CAUGGCUUUCUUAUUUUGUU; siRNA; unmodified RNA)” showed an IC50 of 7.23 nM. With “339052_339082 (antisense GCAAAAGGGACACUGCCUUC; sense GAAGGCAGUGUCCCUUUUGC; siRNA; unmodified RNA)” the IC50 was ≥ 100 nM. Substance “339048_339078 (antisense AUUUGAAAAUGUUGAUCUCC; sense GGAGAUCAACAUUUUCAAAU; siRNA; unmodified RNA)” has an IC50 of 3.97 nM. With “339060_339090 (antisense AGUUUGUGCUAUUCUGUGAA; sense UUCACAGAAUAGCACAAACU; siRNA; unmodified RNA)” the IC50 was 4.43 nM. Work on “339045_339075 (antisense AUCCAUGGCAGCCAGCUGCU; sense AGCAGCUGGCUGCCAUGGAU; siRNA; unmodified RNA)” yielded an IC50 of 5.5 nM. In the case of “339056_339086 (antisense UAAGGAACCUGCAGCUCAGA; sense UCUGAGCUGCAGGUUCCUUA; siRNA; unmodified RNA)”, the IC50 is reported as 7.5 nM.
